Experimental data: US11236068B2, “Fused ring compounds” (Genentech, Inc., priority 2018, dated 2022)

The compounds below were run against K-Ras G12C (Homo sapiens (Human), UniProt P01116, G12C) (assay: Western blot assay for in cell alkylation of K-Ras G12C (HCC1171 cells)). Conditions: 18 hours at 37° C., 7 point dose response.
Format: cell-based
Method: HCC1171 cells were maintained in RPMI1640 supplemented with 10% FBS. Cells were plated in a 96-well plate at 20,000 cells/well and the following day compounds were added to the cells. After 18 hours at 37° C., cells were lysed in RIPA buffer (Sigma RO278) with 0.5% SDS and protease/phosphatase inhibitor cocktail. After through mixing to enable complete lysis, the lysates were cleared by centrifugation before 20 µl was transferred from each well and combined with loading buffer and reducing agent. After heating for 10 minutes at 95° C., […] of each sample was loaded onto a 4-20% Tris-Glycine gel and electrophoresed at 110V for 165 minutes in SDS-PAGE running buffer. Gels were transferred to a nitrocellulose membrane, blocked for 1 hour and stained overnight at 4° C. with primary antibody against K-Ras (polyclonal Proteintech 12063-1-AP). The membrane was then washed thoroughly and counterstained with anti-rabbit IRDye 800CW (LI-COR 926-32211) for one hour at room temperature. After final washes, the membrane was imaged on a LI-COR Odyssey CLx at medium resolution. […] To quantify this affect, the LICOR software was used to draw a rectangle over alkylated and unalkylated bands for each well and measured the total fluorescent intensity (FI) in each of these bands. The following formula was then used to calculate % alkylation: FI(alkylated)/(FI(alkylated)+FI(unalkylated))*100 for each well.
A 7 point dose response curve was used to determine the IC50 for each compound. Cell alkylation data are presented below in Table 3.

Chain of K-Ras G12C (P01116 other isoform, or with tags, fused parts or gaps G12C): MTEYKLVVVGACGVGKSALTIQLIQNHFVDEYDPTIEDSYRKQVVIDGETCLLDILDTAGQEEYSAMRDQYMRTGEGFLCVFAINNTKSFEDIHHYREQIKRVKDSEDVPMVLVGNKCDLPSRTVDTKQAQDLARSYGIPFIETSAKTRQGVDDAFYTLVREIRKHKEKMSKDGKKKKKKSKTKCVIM

Question: How did the EC50 turn out when `C=C(F)C(=O)N1CCN(c2ncnc3cc(-c4nc(N)ccc4C(F)(F)F)c(Cl)cc23)C[C@@H]1C#N` [Example 46b, (2R)-4-[7-[6-amino-3-(trifluoromethyl)pyridin-2-yl]-6-chloroquinazolin-4-yl]-1-(2-fluoroprop-2-enoyl)piperazine-2-carbonitrile] was run?
Answer: Its EC50 is 270 nM.

Question: How did the EC50 turn out when `C=C(F)C(=O)N1CCN(c2nc(OC[C@@H]3CCCN3C)nc3cc(-c4nc(N)cc(C)c4C(F)(F)F)c(Cl)cc23)CC1CC#N` (stereo partly drawn) [Example 55, 2-[4-[7-[6-amino-4-methyl-3-(trifluoromethyl)-2-pyridyl]-6-chloro-2-[[(2S)-1-methylpyrrolidin-2-yl]methoxy]quinazolin-4-yl]-1-(2-fluoroprop-2-enoyl)piperazin-2-yl]acetonitrile] was run?
Answer: The EC50 was 26 nM.

Question: With `C=CC(=O)N1CCN(c2nc(OC[C@@H]3CCC4(CC4)N3C)nc3cc(-c4nc(N)ccc4C(F)(F)F)c(Cl)cc23)CC1` [Example 72, (S)-1-(4-(7-(6-amino-3-(trifluoromethyl)pyridin-2-yl)-6-chloro-2-((4-methyl-4-azaspiro[2.4]-heptan-5-yl)methoxy)quinazolin-4-yl)piperazin-1-yl)prop-2-en-1-one] as the compound, how does the EC50 read?
Answer: The EC50 was 55 nM.

Question: With `C=CC(=O)N1C[C@H](C)N(c2ncnc3cc(-c4nc(N)cc(C)c4C(F)(F)F)c(Cl)cc23)[C@@H](C)C1` [Example 60, 1-[(3S,5S)-4-[7-[6-amino-4-methyl-3-(trifluoromethyl)-2-pyridyl]-6-chloro-quinazolin-4-yl]-3,5-dimethyl-piperazin-1-yl]prop-2-en-1-one] as the compound, how does the EC50 read?
Answer: The EC50 was 72 nM.

Question: With `C=CC(=O)N1CCN(c2ncnc3cc(-c4nc(N)cc5cccnc45)c(Cl)cc23)CC1` [Example 3, 1-[4-[7-(6-amino-1,7-naphthyridin-8-yl)-6-chloro-quinazolin-4-yl]piperazin-1-yl]prop-2-en-1-one] as the compound, how does the EC50 read?
Answer: Its EC50 is 21000 nM.

Question: How did the EC50 turn out when `C=CC(=O)N1CCN(c2ncnc3cc(-c4nc(N)cc(CC)c4C(F)(F)F)c(Cl)cc23)CC1` [Example 52, 1-[4-[7-[6-amino-4-ethyl-3-(trifluoromethyl)-2-pyridyl]-6-chloro-quinazolin-4-yl]piperazin-1-yl]prop-2-en-1-one] was run?
Answer: The EC50 was 86 nM.

Question: For `C=CC(=O)N1CCN(c2nc(OC[C@@H]3CCCN3CCOC)nc3cc(-c4nc(N)ccc4C(F)(F)F)c(Cl)cc23)CC1` [Example 91, 1-[4-[7-[6-amino-3-(trifluoromethyl)-2-pyridyl]-6-chloro-2-[[(2S)-1-(2-methoxyethyl)pyrrolidin-2-yl]methoxy]quinazolin-4-yl]piperazin-1-yl]prop-2-en-1-one], which EC50 is on record?
Answer: Its EC50 is 40 nM.

Question: `C=CC(=O)N1CCN(c2nc(OCC3(N(C)C)CC3)nc3cc(-c4nc(N)ccc4C(F)(F)F)c(Cl)cc23)CC1` [Example 88, 1-(4-(7-(6-amino-3-(trifluoromethyl)pyridin-2-yl)-6-chloro-2-((1-(dimethylamino)cyclopropyl)methoxy)quinazolin-4-yl)piperazin-1-yl)prop-2-en-1-one] was tested. Which EC50 did it give?
Answer: The EC50 was 240 nM.

Question: `C=CC(=O)N1CCN(c2nc(OC(C)(C)[C@@H]3CCCN3C)nc3cc(-c4nc(N)ccc4C(F)(F)F)c(Cl)cc23)CC1` [Example 74, 1-[4-[7-[6-amino-3-(trifluoromethyl)-2-pyridyl]-6-chloro-2-[1-methyl-1-[(2S)-1-methylpyrrolidin-2-yl]ethoxy]quinazolin-4-yl]piperazin-1-yl]prop-2-en-1-one] was tested. Which EC50 did it give?
Answer: Its EC50 is 110 nM.

Question: How did the EC50 turn out when `C=CC(=O)N1CCN(c2ncnc3cc(-c4nc(N)ccc4C(F)(F)F)c(Cl)cc23)CC1C(F)(F)F` (stereo not shown) [Example 25, 1-[4-[7-[6-amino-3-(trifluoromethyl)-2-pyridyl]-6-chloro-quinazolin-4-yl]-2-(trifluoromethyl)piperazin-1-yl]prop-2-en-1-one] was run?
Answer: The EC50 was 4200 nM.

Question: `C=C(F)C(=O)N1CCN(c2nc(OC[C@@H]3CCCN3C)nc3cc(-c4nc(N)cc(C)c4C(F)(F)F)c(Cl)cc23)CC1CF` (stereo partly drawn) [Example 57, 1-[4-[7-[6-amino-4-methyl-3-(trifluoromethyl)-2-pyridyl]-6-chloro-2-[[(2S)-1-methylpyrrolidin-2-yl]methoxy]quinazolin-4-yl]-2-(fluoromethyl)piperazin-1-yl]-2-fluoro-prop-2-en-1-one] was tested. Which EC50 did it give?
Answer: Its EC50 is 230 nM.

Question: Which EC50 does the source give for `C=CC(=O)N1CCN(c2nc(NC)nc3cc(-c4nc(N)cc(C)c4C(F)(F)F)c(Cl)cc23)CC1` [Example 31, 1-(4-[7-[6-amino-4-methyl-3-(trifluoromethyl)pyridin-2-yl]-6-chloro-2-(methylamino)quinazolin-4-yl]piperazin-1-yl)prop-2-en-1-one] here?
Answer: The EC50 was 200 nM.

Question: How did the EC50 turn out when `C=CC(=O)N1CCN(c2nc(NC[C@@H](F)C(C)(C)O)nc3cc(-c4nc(N)cc(C)c4F)c(Cl)cc23)CC1` [Example 12, (R)-1-(4-(7-(6-amino-3-fluoro-4-methylpyridin-2-yl)-6-chloro-2-((2-fluoro-3-hydroxy-3-methylbutyl)amino)quinazolin-4-yl)piperazin-1-yl)prop-2-en-1-one] was run?
Answer: The EC50 was 8100 nM.

Question: For `C=CC(=O)N1CCN(c2nc(OC[C@@H]3CCCN3C3COC3)nc3cc(-c4nc(N)ccc4C(F)(F)F)c(Cl)cc23)CC1` [Example 87, 1-[4-[7-[6-amino-3-(trifluoromethyl)-2-pyridyl]-6-chloro-2-[[(2S)-1-(oxetan-3-yl)pyrrolidin-2-yl]methoxy]quinazolin-4-yl]piperazin-1-yl]prop-2-en-1-one], which EC50 is on record?
Answer: Its EC50 is 180 nM.

Question: With `C=CC(=O)N1CC(c2ncnc3cc(-c4nc(N)ccc4C(F)(F)F)c(Cl)cc23)C1` [Example 50, 1-(3-[7-[6-amino-3-(trifluoromethyl)pyridin-2-yl]-6-chloroquinazolin-4-yl]azetidin-1-yl)prop-2-en-1-one] as the compound, how does the EC50 read?
Answer: The EC50 was 5300 nM.

Question: `C=CC(=O)N1CCN(c2ncnc3cc(-c4nc(N)cc(C)c4F)c(Cl)cc23)CC1` [Example 11, 1-(4-(7-(6-amino-3-fluoro-4-methylpyridin-2-yl)-6-chloroquinazolin-4-yl)piperazin-1-yl)prop-2-en-1-one] was tested. Which EC50 did it give?
Answer: The EC50 was 4700 nM.

Question: `C=CC(=O)N1CCN(c2ncnc3cc(-c4nc(N)cc5cnccc45)c(Cl)cc23)CC1` [Example 4, 1-[4-[7-(3-amino-2,6-naphthyridin-1-yl)-6-chloro-quinazolin-4-yl]piperazin-1-yl]prop-2-en-1-one] was tested. Which EC50 did it give?
Answer: The EC50 was greater than 30000 nM.

Question: `C=CC(=O)N1CCN(c2nc(OC3CCCC3N(C)C)nc3cc(-c4nc(N)cc(C)c4C(F)(F)F)c(Cl)cc23)[C@@H](C)C1` (stereo partly drawn) [Example 66, 1-[(3S)-4-[7-[6-amino-4-methyl-3-(trifluoromethyl)-2-pyridyl]-6-chloro-2-[2-(dimethylamino)cyclopentoxy]quinazolin-4-yl]-3-methyl-piperazin-1-yl]prop-2-en-1-one] was tested. Which EC50 did it give?
Answer: The EC50 was 28 nM.

Question: `C=CC(=O)N1CCN(c2nc(OCC3(C)C[C@@H](F)CN3C)nc3cc(-c4nc(N)ccc4C(F)(F)F)c(Cl)cc23)CC1` (stereo partly drawn) [Example 96, 1-[4-[7-[6-amino-3-(trifluoromethyl)-2-pyridyl]-6-chloro-2-[[(4R)-4-fluoro-1,2-dimethyl-pyrrolidin-2-yl]methoxy]quinazolin-4-yl]piperazin-1-yl]prop-2-en-1-one] was tested. Which EC50 did it give?
Answer: Its EC50 is 22 nM.

Question: How did the EC50 turn out when `C=CC(=O)N1CCN(c2nc(OCC3CCC(COC)N3C)nc3cc(-c4nc(N)ccc4C(F)(F)F)c(Cl)cc23)CC1` (stereo not shown) [Example 80, 1-(4-(7-(6-amino-3-(trifluoromethyl)pyridin-2-yl)-6-chloro-2-((5-(methoxymethyl)-1-methylpyrrolidin-2-yl)methoxy)quinazolin-4-yl)piperazin-1-yl)prop-2-en-1-one] was run?
Answer: Its EC50 is 71 nM.

Question: `C=C(F)C(=O)N1CCN(c2nc(OC[C@@H]3C[C@@H](F)CN3C)nc3cc(-c4nc(N)cc(C)c4C(F)(F)F)c(Cl)cc23)CC1CC#N` (stereo partly drawn) [Example 56, 2-[4-[7-[6-amino-4-methyl-3-(trifluoromethyl)-2-pyridyl]-6-chloro-2-[[(2S,4R)-4-fluoro-1-methyl-pyrrolidin-2-yl]methoxy]quinazolin-4-yl]-1-(2-fluoroprop-2-enoyl)piperazin-2-yl]acetonitrile] was tested. Which EC50 did it give?
Answer: The EC50 was 26 nM.

Question: For `C=CC(=O)N1CCN(c2nc(OC[C@@H]3[C@H]4C[C@H]4CN3C)nc3cc(-c4nc(N)ccc4C(F)(F)F)c(Cl)cc23)CC1` [Example 78a, 1-(4-(7-(6-amino-3-(trifluoromethyl)pyridin-2-yl)-6-chloro-2-(((1S,2S,5R)-3-methyl-3-azabicyclo[3.1.0]hexan-2-yl)methoxy)quinazolin-4-yl)piperazin-1-yl)prop-2-en-1-one], which EC50 is on record?
Answer: Its EC50 is 56 nM.

Question: With `C=CC(=O)N1CCN(c2ncnc3cc(-c4nc(N)ccc4C(F)(F)F)c(Cl)cc23)CC1` [Example 35, 1-(4-[7-[6-amino-3-(trifluoromethyl)pyridin-2-yl]-6-chloroquinazolin-4-yl]piperazin-1-yl)prop-2-en-1-one] as the compound, how does the EC50 read?
Answer: Its EC50 is 450 nM.

Question: How did the EC50 turn out when `C=CC(=O)N1CCN(c2ncnc3cc(-c4nc(N)cc(C5CC5)c4C(F)(F)F)c(Cl)cc23)CC1` [Example 34, 1-(4-(7-(6-amino-4-cyclopropyl-3-(trifluoromethyl)pyridin-2-yl)-6-chloroquinazolin-4-yl)piperazin-1-yl)prop-2-en-1-one] was run?
Answer: Its EC50 is 3400 nM.

Question: Which EC50 does the source give for `C=CC(=O)N1CCC(C#N)(c2ncnc3cc(-c4nc(N)cc(C)c4C(F)(F)F)c(Cl)cc23)CC1` [Example 22, 4-[7-[6-amino-4-methyl-3-(trifluoromethyl)-2-pyridyl]-6-chloro-quinazolin-4-yl]-1-prop-2-enoyl-piperidine-4-carbonitrile] here?
Answer: The EC50 was 2900 nM.
